The values that follow come from patent US8278441B2, “BACE inhibitors” (Eli Lilly and Company, priority 2009, dated 2012).

One test has as its target T1, human BACE1(1-460):Fc (Homo sapiens, UniProt P56817).
T1 construct: made in house; host or cells: HEK293 cells, transient transfection; purified from conditioned media by Protein A chromatography
The test is described as follows: BACE1 FRET assay. The note with it: purified recombinant human BACE1(1-460):Fc, FRET substrate, pH 4.6. In kind it is biochemical.

Test [1] deals with T2, native endogenous human BACE1 in HEK293/APP751sw cells (Homo sapiens, UniProt P56817).
T2 construct: endogenous in cells; host or cells: HEK293p (ATCC CRL-1573) stably expressing APP751sw
Description: HEK293Swe whole cell assay (Abeta ELISA). The class given is cell-based. For orientation: In an ELISA, binding on a coated surface is turned into a signal by an enzyme label.

Test [2] deals with T3, native, endogenous murine BACE1 in PDAPP primary cortical neurons (Mus musculus, UniProt P56818).
T3 construct: endogenous in cells; host or cells: primary cortical neurons from Embryonic Day 16 PDAPP transgenic mouse embryos
The test is described as follows: PDAPP primary neuronal assay (Abeta ELISA). The class given is cell-based. To be noted: primary cortical neurons from PDAPP embryos, 24 h.

For a further test, the system named is beta-secretase. Description: In vivo inhibition of beta-secretase in PDAPP mice. The note with it: 3 hours; for Abeta 1-x peptide level reduction in brain cortex / C99 level reduction in brain cortex / sAPPb level reduction in brain cortex: young female PDAPP mice, vs vehicle-treated mice. An excerpt: Several animal models, including mouse, guinea pig, dog, and monkey, may be used to screen for inhibition of beta-secretase activity in vivo following compound treatment. Animals used in this invention can be wild type, transgenic, or gene knockout animals. For example, the PDAPP mouse model, prepared as described in Games et al., Nature 373, 523-527 (1995), and other non-transgenic or gene knockout animals are useful to analyze in vivo inhibition of Abeta and sAPPbeta production in the presence of inhibitory compounds. Generally, 2 to 12 month old PDAPP mice, gene knockout mice or non-transgenic animals are administered compound formulated in vehicles, such as corn oil, cyclodextran, phosphate buffers, PHARMASOLVE®, or other suitable vehicles. One to twenty-four hours following the administration of compound, animals are sacrificed, and brains as well as cerebrospinal fluid and plasma are removed for analysis of Abetas, C99, and sAPP fragments. (See Dovey, et al., Journal of Neurochemistry, 76, 173-181 (2001); and Johnson-Wood, et al., Proc. Natl. Acad. Sci. USA, 94, 1550-1555 (1997)).
For standard in vivo pharmacology studies, animals are dosed with various concentrations of compound and compared to a vehicle-treated control group dosed at the same time. For some time course studies, brain tissue, plasma, or cerebrospinal fluid is obtained from selected animals, beginning at time 0 to establish a baseline. Compound is administered to other groups and sacrificed at various times after dosing. Brain tissue, plasma, or cerebrospinal fluid is obtained from selected animals and analyzed for the presence of APP cleavage products, including Abeta peptides, sAPPbeta, and other APP fragments, for example, by specific sandwich ELISA assays. At the end of the test period, animals are sacrificed and brain tissues, plasma, or cerebrospinal fluid are analyzed for the presence of Abeta peptides, C99, and sAPPbeta, as appropriate. Brain tissues of APP transgenic animals are also analyzed for the amount of beta-amyloid plaques following compound treatment.

[3] abbreviates: Abeta 1-40 in conditioned media, read-out: HEK 293 Swe A-beta (1-40) ELISA IC50.
Setting [4] is: Abeta 1-42 in conditioned media, read-out: HEK 293 Swe A-beta (1-42) ELISA IC50.
Where [5] appears, read: Abeta 1-40, read-out: PDAPP Neuron A-beta (1-40) ELISA IC50.
Where [6] appears, read: Abeta 1-42, read-out: PDAPP Neuron A-beta (1-42) ELISA IC50.

Structures can show the parent of a compound that is named as a salt. Where two headings read alike, the source gives them in different places.

T2 sequence (P56817 46-501): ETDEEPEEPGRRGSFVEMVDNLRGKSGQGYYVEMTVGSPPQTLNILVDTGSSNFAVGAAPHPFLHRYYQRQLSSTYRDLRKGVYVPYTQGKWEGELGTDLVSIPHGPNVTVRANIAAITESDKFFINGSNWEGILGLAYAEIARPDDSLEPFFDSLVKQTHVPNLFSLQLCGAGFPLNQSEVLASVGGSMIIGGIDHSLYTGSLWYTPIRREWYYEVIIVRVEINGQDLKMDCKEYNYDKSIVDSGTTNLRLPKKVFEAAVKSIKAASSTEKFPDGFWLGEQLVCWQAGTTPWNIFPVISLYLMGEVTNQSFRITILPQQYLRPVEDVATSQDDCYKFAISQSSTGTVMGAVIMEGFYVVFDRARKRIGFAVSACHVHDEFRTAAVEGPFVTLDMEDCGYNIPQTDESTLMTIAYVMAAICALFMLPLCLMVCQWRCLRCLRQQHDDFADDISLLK
T3 sequence (P56818 46-501): as the sequence (P56817 46-501) above, with P6S, V162I, L165I, S180T, V182A, I340V, L393A, Q443H counted along it
T1 sequence (P56817 22-460): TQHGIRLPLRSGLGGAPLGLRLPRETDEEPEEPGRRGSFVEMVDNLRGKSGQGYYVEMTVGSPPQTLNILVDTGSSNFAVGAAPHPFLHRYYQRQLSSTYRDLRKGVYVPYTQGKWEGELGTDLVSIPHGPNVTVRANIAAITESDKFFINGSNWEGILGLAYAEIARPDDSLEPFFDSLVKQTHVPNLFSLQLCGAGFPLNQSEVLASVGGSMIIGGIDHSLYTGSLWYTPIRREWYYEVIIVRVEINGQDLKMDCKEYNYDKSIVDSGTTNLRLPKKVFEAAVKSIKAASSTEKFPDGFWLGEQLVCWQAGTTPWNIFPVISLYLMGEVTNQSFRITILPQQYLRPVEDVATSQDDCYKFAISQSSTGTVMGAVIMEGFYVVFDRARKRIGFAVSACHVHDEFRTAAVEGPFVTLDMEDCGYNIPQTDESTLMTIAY

Regarding `NC1=N[C@@]2(c3cccc(-c4cncnc4)c3)C[C@H](O)C[C@H]2CS1` (racemic) [Example 32, Racemic (4aRS,6RS,7aSR)-2-Amino-7a-(3-(pyrimidin-5-yl)phenyl)-4,4a,5,6,7,7a-hexahydrocyclopenta[d][1,3]thiazin-6-ol dihydrochloride], the concentration for half-maximal inhibition (IC50) (in general, the midpoint of a concentration-inhibition curve) on human BACE1(1-460):Fc stood at 346 nM; in test [1] (setting [3]) it was 670 nM; in test [1] (setting [4]), 173 nM; in test [2] (setting [5]), 436 nM; in test [2] (setting [6]) it was 352 nM.

For the compound `NC1=N[C@@]2(c3cccc(-c4cncnc4)c3)CCCC[C@H]2CS1` [Example 25, (8aS)-8a-(3-(Pyrimidin-5-yl)phenyl)-4a,5,6,7,8,8a-hexahydro-4H-benzo[d][1,3]thiazin-2-amine dihydrochloride], the 50% inhibitory concentration (IC50) on human BACE1(1-460):Fc is 731 nM; in test [1] (setting [3]), 1360 nM; in test [1] (setting [4]) it was 1150 nM; in test [2] (setting [5]), 734 nM; in test [2] (setting [6]), 659 nM.

As for `Cl.NC1=N[C@@]2(c3cc(NC(=O)c4ccc(F)cn4)ccc3F)COC[C@H]2CS1` [Example 1, N-(3-((4aS,7aS)-2-Amino-4a,5,7,7a-tetrahydro-4H-furo[3,4-d][1,3]thiazin-7a-yl)-4-fluorophenyl)-5-fluoropicolinamide hydrochloride], in the test on beta-secretase (CSF, 10 mg/kg oral), the “CSF Abeta 1-42 level reduction” value is “approximately 62%”, the “CSF Abeta 1-x level reduction” value is on record as “approximately 62%”, the “CSF sAPPalpha levels” value is recorded as “unchanged” and the “CSF sAPPbeta level reduction” value was determined as 22%. Besides, in the test on beta-secretase (10 mg/kg oral), the “Abeta 1-x peptide level reduction in brain cortex” value is “approximately 54%”, the “C99 level reduction in brain cortex” value is listed as approximately 34% and the “sAPPb level reduction in brain cortex” value is reported as approximately 42%. Further, in the test on beta-secretase (10 mg/kg subcutaneous), the “Abeta 1-x peptide level reduction in brain cortex” value was “approximately 64%”, the “C99 level reduction in brain cortex” value is recorded as approximately 60% and the “sAPPb level reduction in brain cortex” value is on record as approximately 44%.

For `NC1=N[C@@]2(c3cc(NC(=O)c4nccs4)ccc3F)CCOC[C@H]2CS1` [Example 8, N-(3-((8aS)-2-Amino-4,4a,5,7,8,8a-hexahydropyrano[4,3-d][1,3]thiazin-8a-yl)-4-fluorophenyl)thiazole-2-carboxamide hydrochloride], the half-inhibitory concentration (IC50) was 179 nM at human BACE1(1-460):Fc; 78 nM in test [1] (setting [3]); 89.6 nM in test [1] (setting [4]); 32.8 nM in test [2] (setting [5]); 41.3 nM in test [2] (setting [6]).
